# Reference: ChEMBL document CHEMBL1201862, “PubChem BioAssay data set” (2004)
# Activity calls are given as the source filed them. For most assays here, no stated cut-off is given here; in the data, actives have a measured EC50 and inactives only a lower limit.
# Molecular target: Cytochrome P450 2C9 (Homo sapiens, UniProt P11712)
# Sequence (P11712 whole entry): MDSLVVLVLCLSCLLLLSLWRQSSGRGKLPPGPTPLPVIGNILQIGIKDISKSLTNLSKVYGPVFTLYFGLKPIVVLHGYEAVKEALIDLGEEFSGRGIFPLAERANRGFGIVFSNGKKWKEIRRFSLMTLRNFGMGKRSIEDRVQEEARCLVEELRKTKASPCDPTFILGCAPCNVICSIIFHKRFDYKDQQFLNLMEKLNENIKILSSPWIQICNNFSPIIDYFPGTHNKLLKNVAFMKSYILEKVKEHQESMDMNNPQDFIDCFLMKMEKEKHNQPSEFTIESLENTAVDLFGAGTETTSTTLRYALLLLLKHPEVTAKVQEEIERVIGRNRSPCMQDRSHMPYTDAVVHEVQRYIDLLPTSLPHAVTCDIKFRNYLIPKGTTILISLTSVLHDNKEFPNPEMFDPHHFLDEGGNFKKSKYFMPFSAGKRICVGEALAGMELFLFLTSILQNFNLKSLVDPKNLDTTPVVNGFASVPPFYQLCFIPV
row,Compound,AC50
1,Clc1ccc(CSc2nccn2Cc2ccccc2)cc1,22.4 µM (inconclusive)
2,COC(=O)C[C@@H]1O[C@H]1[C@H](C)[C@@H](OC)C(C)C,3.16 µM (inconclusive)
3,COC(=O)C/C=C\[C@@H](C)[C@@H](/C=N\OCC[C@H]1C=C[C@H](OC(C)=O)[C@@H](COC(C)=O)O1)NS(=O)(=O)c1ccc(C)cc1,5.01 µM (inconclusive)
4,Cc1nc2cnc(N(C)C)nc2n(C2CC2)c1=O,15.8 µM (inconclusive)
5,CCOc1ccc(C(F)(F)F)cc1NC(C)=O,31.6 µM (inconclusive)
6,CSc1nsc(SC)c1NC(=O)Nc1ccccn1,22.4 µM (inconclusive)
7,CCc1ccc(NC(=O)CSc2nc3cc(C(=O)OC)ccc3c(=O)n2Cc2ccco2)cc1,28.2 µM (inconclusive)
8,COc1ccc(-c2nc3cnc(N4CCN(C)CC4)nc3n(-c3ccc(OC)cc3)c2=O)cc1,39.8 µM (inconclusive)
9,C[C@@H](C(=O)NCCF)[C@H]1C[C@]1(C)[C@H](NC(=O)OCc1ccccc1)c1ccccc1,25.1 µM (inconclusive)
10,C/C(=C\c1ccc(Cl)cc1)C(C)(C)C(=O)O,3.16 µM (inconclusive)
11,O=C(NNC(=O)c1ccccc1)C(=O)N1CCCCC1,0.00562 µM (inconclusive)
12,COc1ccc(OC)c(NC(=O)Cn2cccc2)c1,31.6 µM (inconclusive)
13,Cc1ccc2c(c1)N(CCC(=O)NCc1ccc3c(c1)OCO3)C(=O)CO2,0.00562 µM (inconclusive)

# Test system: Streptococcus
# Assay: Group A Streptococcus viability loss, dose response, counter-screen for streptokinase expression inhibitor project, luminescence, BacTiterGlo (AID 1915);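 further: potency for reduction of bacterial viability or growth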
# Assay type: functional, organism-based
row,Compound,EC50
1,Clc1ccc(CSc2nccn2Cc2ccccc2)cc1,> 150 µM (not active)
2,CCOC(=O)/C(=N\Nc1ccc(Cl)cc1)c1csc(Nc2ccccc2)n1,37 µM (active)
3,Cc1ccc(Cn2nnc3c(O)nc(C4CCN(S(=O)(=O)c5cc(C)ccc5C)CC4)nc32)cc1,96 µM (active)
4,CN(C)C=O.COCCn1c(SCc2nc(O)c3c(C)c(C(=O)OC)sc3n2)nc2ccccc21,101 µM (active)
5,COc1ccc(-c2cc3ncnc(O)c3s2)cc1,17.8 µM (active)
6,COc1cc(/C=N/Nc2nc3ccccc3s2)cc([N+](=O)[O-])c1O,> 150 µM (not active)
7,O=C(Nc1nnc(C2=COCCO2)o1)c1ccc([N+](=O)[O-])s1,> 150 µM (not active)

# Test system: Streptococcus sp. 'group A'
# Assay: growth inhibition of control SK(-) GAS strain, dose response, counter-screen for streptokinase expression inhibitor project, luminescence, kanamycin, BacTiterGlo, confirmation (AID 1900)
# Assay type: functional, organism-based
row,Compound,EC50
1,Clc1ccc(CSc2nccn2Cc2ccccc2)cc1,33 µM (active)
2,CCOC(=O)/C(=N\Nc1ccc(Cl)cc1)c1csc(Nc2ccccc2)n1,6.05 µM (active)
3,Cc1ccc(Cn2nnc3c(O)nc(C4CCN(S(=O)(=O)c5cc(C)ccc5C)CC4)nc32)cc1,9.94 µM (active)
4,CN(C)C=O.COCCn1c(SCc2nc(O)c3c(C)c(C(=O)OC)sc3n2)nc2ccccc21,6.06 µM (active)
5,COc1ccc(-c2cc3ncnc(O)c3s2)cc1,3.63 µM (active)
6,COc1cc(/C=N/Nc2nc3ccccc3s2)cc([N+](=O)[O-])c1O,9.74 µM (active)
7,O=C(Nc1nnc(C2=COCCO2)o1)c1ccc([N+](=O)[O-])s1,18.1 µM (active)

# Test system: not listed separately
# Assay: inhibitors of intracellular T. cruzi replication, confirmation, NIH3T3 host cells, beta-gal luminescence (AID 2044);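 further: intracellular parasites grown in NIH/3T3 mouse fibroblasts as host cells; luminescent beta-galactosidase reporter signal from transgenic T. cruzi replicating inside host cells; inhibitors lower the luminescence signal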
# Assay type: functional, cell-based
row,Compound,EC50
1,C/C(Cn1cnc([N+](=O)[O-])n1)=N\NC(=O)c1ccccc1O,1.73 µM (active)
2,COCCCNCCCOc1ccc(C(C)(C)c2ccccc2)cc1,0.567 µM (active)
3,Cc1cc(C)n2nc(-c3ccsc3-n3c(C)ccc3C)cc2n1,2.77 µM (active)
4,COc1ccc(CC(=O)Nc2nc(-c3ccncc3)cs2)cc1,2.74 µM (active)
5,CCOC(=O)/C(=N\Nc1ccc(Cl)cc1)c1csc(Nc2ccccc2)n1,1.48 µM (active)
6,OC(COc1ccc(OCc2ccccc2)cc1)CN1CCCCC1 (stereo not drawn),21.4 µM (active)
7,CC(=O)N(CCCN(C)C)CCC(C)CCC=C(C)C (stereo not drawn),0.324 µM (active)
8,CC(C)c1ccc2oc(-c3cc(N)ccc3O)nc2c1,2.88 µM (active)
9,COc1ccc(/C=C/C(=O)Nc2cc(C)nn2-c2nc3ccccc3[nH]2)cc1,1.71 µM (active)
10,CCCCNc1c(-c2ccc(SC3CCCCC3)c(OC)c2)nc2ccc(Cl)cn12,1.43 µM (active)
11,c1ccc2c(NC3C4CC5CC(C4)CC3C5)nc(N3CCOCC3)nc2c1 (stereo not drawn),1.39 µM (active)
12,Cc1ccc(NC(=S)N(CCCN2CCOCC2)Cc2cccnc2)cc1C,1.19 µM (active)
13,Cc1cc(C)cc(Nc2c([N+](=O)[O-])nn(-c3ccc4c(c3)OCCO4)[n+]2[O-])c1,0.16 µM (active)
14,O=[N+]([O-])c1ccc(S(=O)(=O)Nc2ccc(-c3ccc(N4CCCC4)nn3)cc2)cc1,0.159 µM (active)
15,CCOc1ccc(CN2CCN(Cc3cnc(-c4ccccc4)s3)CC2CCO)cc1 (stereo not drawn),0.201 µM (active)
16,C/C(N)=C(/C#N)C(=O)CSc1nc(-c2ccccc2)c(-c2ccccc2)o1,1.43 µM (active)
17,Cc1nn(Cc2cccc(Oc3ccccc3)c2)c(C)c1NC(=O)NC12CC3CC(CC(C3)C1)C2,1.29 µM (active)

# Molecular target: T1, Streptokinase A (Streptococcus pyogenes serotype M1, UniProt P10520)
# T1 sequence (P10520 whole entry): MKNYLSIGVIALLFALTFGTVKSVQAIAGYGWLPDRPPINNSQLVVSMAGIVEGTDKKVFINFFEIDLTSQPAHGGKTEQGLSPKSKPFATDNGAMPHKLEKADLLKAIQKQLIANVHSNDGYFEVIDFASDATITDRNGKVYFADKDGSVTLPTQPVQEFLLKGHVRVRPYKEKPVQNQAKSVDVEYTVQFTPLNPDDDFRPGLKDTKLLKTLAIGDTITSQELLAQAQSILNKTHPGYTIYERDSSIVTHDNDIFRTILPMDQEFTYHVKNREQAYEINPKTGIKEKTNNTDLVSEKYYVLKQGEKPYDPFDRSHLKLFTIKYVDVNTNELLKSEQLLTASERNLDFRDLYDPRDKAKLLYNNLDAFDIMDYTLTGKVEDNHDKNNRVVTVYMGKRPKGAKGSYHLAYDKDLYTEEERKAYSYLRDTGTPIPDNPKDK
# Assay: S. pyogenes streptokinase expression inhibitors, potency, dose response, plasminogen activation absorbance, OD405 (AID 1914);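 further: secreted streptokinase activity via plasminogen activation per viability signal from cell pellet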
# Assay type: functional, Streptococcus pyogenes M1 GAS
row,Compound,EC50
1,Clc1ccc(CSc2nccn2Cc2ccccc2)cc1,24.2 µM (inconclusive)
2,CCOC(=O)/C(=N\Nc1ccc(Cl)cc1)c1csc(Nc2ccccc2)n1,20.9 µM (active)
3,CN(C)C=O.COCCn1c(SCc2nc(O)c3c(C)c(C(=O)OC)sc3n2)nc2ccccc21,> 150 µM (not active)
4,COc1ccc(-c2cc3nc[nH]c(=O)c3s2)cc1,> 150 µM (not active)
5,Cc1ccc(Cn2nnc3c(=O)[nH]c(C4CCN(S(=O)(=O)c5cc(C)ccc5C)CC4)nc32)cc1,21.4 µM (active)
6,O=C(Nc1nnc(C2=COCCO2)o1)c1ccc([N+](=O)[O-])s1,> 150 µM (not active)
7,COc1cc(/C=N/N=c2\[nH]c3ccccc3s2)cc([N+](=O)[O-])c1O,> 150 µM (not active)

# Test system: not listed separately
# Assay: cytotoxicity toward NIH3T3 fibroblasts, dose response, counter-screen, cell-based, ATP luminescence, mouse fibroblasts (AID 2010);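 further: cells exposed to compound for about 90 hours before reading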
# Assay type: functional
row,Compound,EC50
1,C/C(Cn1cnc([N+](=O)[O-])n1)=N\NC(=O)c1ccccc1O,> 60 µM (not active)
2,COCCCNCCCOc1ccc(C(C)(C)c2ccccc2)cc1,> 60 µM (inconclusive)
3,Cc1cc(C)n2nc(-c3ccsc3-n3c(C)ccc3C)cc2n1,> 60 µM (not active)
4,COc1ccc(CC(=O)Nc2nc(-c3ccncc3)cs2)cc1,> 60 µM (not active)
5,CCOC(=O)/C(=N\Nc1ccc(Cl)cc1)c1csc(Nc2ccccc2)n1,> 60 µM (not active)
6,OC(COc1ccc(OCc2ccccc2)cc1)CN1CCCCC1 (stereo not drawn),> 60 µM (not active)
7,CC(=O)N(CCCN(C)C)CCC(C)CCC=C(C)C (stereo not drawn),> 60 µM (not active)
8,CC(C)c1ccc2oc(-c3cc(N)ccc3O)nc2c1,10.8 µM (active)
9,COc1ccc(/C=C/C(=O)Nc2cc(C)nn2-c2nc3ccccc3[nH]2)cc1,9.28 µM (active)
10,CCCCNc1c(-c2ccc(SC3CCCCC3)c(OC)c2)nc2ccc(Cl)cn12,> 60 µM (not active)
11,c1ccc2c(NC3C4CC5CC(C4)CC3C5)nc(N3CCOCC3)nc2c1 (stereo not drawn),> 30 µM (not active)
12,Cc1ccc(NC(=S)N(CCCN2CCOCC2)Cc2cccnc2)cc1C,10.9 µM (active)
13,Cc1cc(C)cc(Nc2c([N+](=O)[O-])nn(-c3ccc4c(c3)OCCO4)[n+]2[O-])c1,> 60 µM (not active)
14,O=[N+]([O-])c1ccc(S(=O)(=O)Nc2ccc(-c3ccc(N4CCCC4)nn3)cc2)cc1,> 60 µM (not active)
15,CCOc1ccc(CN2CCN(Cc3cnc(-c4ccccc4)s3)CC2CCO)cc1 (stereo not drawn),> 60 µM (not active)
16,C/C(N)=C(/C#N)C(=O)CSc1nc(-c2ccccc2)c(-c2ccccc2)o1,> 60 µM (not active)
17,Cc1nn(Cc2cccc(Oc3ccccc3)c2)c(C)c1NC(=O)NC12CC3CC(CC(C3)C1)C2,> 60 µM (not active)

# Molecular target: Cytochrome P450 3A4 (Homo sapiens, UniProt P08684);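 further: CYP3A4 tested as one member of a cytochrome P450 panel screen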
# Sequence (P08684 whole entry): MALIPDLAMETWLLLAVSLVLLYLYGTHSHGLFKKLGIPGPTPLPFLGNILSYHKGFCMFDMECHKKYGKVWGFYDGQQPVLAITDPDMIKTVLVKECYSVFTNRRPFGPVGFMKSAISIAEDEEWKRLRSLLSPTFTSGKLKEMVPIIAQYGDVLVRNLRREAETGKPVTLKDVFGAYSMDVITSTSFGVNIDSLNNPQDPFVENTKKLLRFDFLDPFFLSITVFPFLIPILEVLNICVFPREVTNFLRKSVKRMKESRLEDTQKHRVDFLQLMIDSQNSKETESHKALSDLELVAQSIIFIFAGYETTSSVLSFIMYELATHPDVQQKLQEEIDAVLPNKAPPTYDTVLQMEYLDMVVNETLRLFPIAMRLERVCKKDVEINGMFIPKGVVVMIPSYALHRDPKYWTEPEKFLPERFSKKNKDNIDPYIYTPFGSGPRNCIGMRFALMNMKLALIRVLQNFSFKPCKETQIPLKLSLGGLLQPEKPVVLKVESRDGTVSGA
row,Compound,AC50
1,N#CCCn1c(=O)c(-c2cc(F)cc(F)c2)nc2cnc(N3CCOCC3)nc21,20 µM (inconclusive)
2,COc1ccc(O[C@H]2C=C[C@@H](c3ccccc3)O[C@@H]2CON=C(C)C)cc1,3.98 µM (inconclusive)
3,CCc1ccc(NC(=O)CSc2nc3cc(C(=O)OC)ccc3c(=O)n2Cc2ccco2)cc1,3.98 µM (inconclusive)
4,COc1ccc(NC(=O)N2CC[C@@]3(CCCN(C(=O)c4csnn4)C3)C2)cc1,31.6 µM (inconclusive)
5,Cc1ccc(S(=O)(=O)N[C@H]2COC(=O)[C@H](C)COC(=O)[C@H](C)NC(=O)C/C=C\[C@H]2C)cc1,3.98 µM (inconclusive)
6,CCOC(=O)c1nn(-c2ccccc2)c(-c2ccccc2)c1C(=O)c1ccccc1,15.8 µM (inconclusive)
7,O=C(Nc1ccccc1)c1ccccc1CC[N+](=O)[O-],7.94 µM (inconclusive)
8,Cc1ccccc1OCC(=O)N/N=C1\CCOc2c(C)cccc21,3.16 µM (inconclusive)
9,CC(=O)OC[C@H]1O[C@@H](O/N=C(\C)CCN2CCc3nc(-c4ccccc4)c(-c4ccccc4)cc3C2)[C@H](OC(C)=O)[C@@H](OC(C)=O)[C@H]1OC(C)=O,5.01 µM (inconclusive)
10,O=c1ccn([C@@H]2O[C@@H](COP(=O)(O)OP(=O)(O)O)[C@H](O)[C@@H]2O)c(=O)[nH]1,0.794 µM (inconclusive)
11,CN(c1ccc(C(=O)NC2CC3CCC2C3)cc1)S(C)(=O)=O (stereo not drawn),15.8 µM (inconclusive)
12,CC(=O)N1CCC[C@@]2(CCN(c3ccccc3)C2)C1,25.1 µM (inconclusive)
13,Cc1cccc(NC(=O)Cn2cccc2)c1,22.4 µM (inconclusive)
14,COc1ccc(OC)c(NC(=O)Cn2cccc2)c1,15.8 µM (inconclusive)

# Molecular target: T2, Cytochrome P450 1A2 (Homo sapiens, UniProt P05177);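 further: PubChem cytochrome P450 panel assay, CYP1A2 panel member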
# T2 sequence (P05177 whole entry): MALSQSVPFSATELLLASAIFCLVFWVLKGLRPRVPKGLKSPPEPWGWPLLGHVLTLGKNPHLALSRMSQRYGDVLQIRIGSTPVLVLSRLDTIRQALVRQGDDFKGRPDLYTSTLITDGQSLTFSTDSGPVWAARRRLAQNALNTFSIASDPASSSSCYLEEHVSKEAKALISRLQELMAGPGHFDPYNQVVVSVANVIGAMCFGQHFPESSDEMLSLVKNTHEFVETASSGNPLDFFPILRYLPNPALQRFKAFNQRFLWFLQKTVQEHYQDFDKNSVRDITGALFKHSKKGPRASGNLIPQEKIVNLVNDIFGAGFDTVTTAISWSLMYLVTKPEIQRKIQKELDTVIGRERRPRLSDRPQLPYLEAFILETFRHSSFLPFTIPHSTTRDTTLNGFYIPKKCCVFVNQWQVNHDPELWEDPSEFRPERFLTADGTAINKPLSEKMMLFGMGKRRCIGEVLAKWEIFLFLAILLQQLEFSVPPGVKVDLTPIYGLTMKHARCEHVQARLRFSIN
row,Compound,AC50
1,N#CCCn1c(=O)c(-c2cc(F)cc(F)c2)nc2cnc(N3CCOCC3)nc21,3.16 µM (inconclusive)
2,Cc1ccc(CN2CC34C=CC(O3)C(C(=O)NCc3ccco3)C4C2=O)cc1 (stereo not drawn),20 µM (inconclusive)
3,CCOC(=O)c1cc2c(ccn2C)n1CC(=O)N1CCCC(C)C1 (stereo not drawn),20 µM (inconclusive)
4,CN(C)C=O.COCCn1c(SCc2nc(O)c3c(C)c(C(=O)OC)sc3n2)nc2ccccc21,25.1 µM (inconclusive)
5,O=C(c1ccncc1)N1CCC2(CC1)CCN(c1ncccn1)CC2,20 µM (inconclusive)
6,COc1ccc(-c2nc3cnc(N4CCN(C)CC4)nc3n(-c3ccc(OC)cc3)c2=O)cc1,15.8 µM (inconclusive)
7,C[C@@H](C(=O)NCCF)[C@H]1C[C@]1(C)[C@H](NC(=O)OCc1ccccc1)c1ccccc1,15.8 µM (inconclusive)
8,CN(C)C(=O)c1ccc(-c2cc(N(C)Cc3ccco3)ncn2)cc1,25.1 µM (inconclusive)
9,Cc1ccc(S(=O)(=O)Nc2ccccc2C(=O)c2ccc(C)c(C)c2)cc1,0.631 µM (inconclusive)
10,O=c1c(-c2cc(F)cc(F)c2)nc2cnc(N3CCOCC3)nc2n1C1CC1,1 µM (inconclusive)
11,COc1ncc2nc(-c3cc(F)cc(F)c3)c(=O)n(-c3ccccc3)c2n1,1.26 µM (inconclusive)
